This note sets out measurements from patent US20020192233A1, “Human T cell response to MHC-binding motif clusters” (priority 2000, published 2002).

This experiment has as its system peripheral blood mononuclear cells from Mtb-immune (PPD skin-test positive) subjects. The experiment is classed as cell-based, human. The following applies: for Phil # responders (n = 38) / Phil % responders (n = 38): Philippines cohort; for Phil # responders (n = 38) / Phil % responders (n = 38) / Prov # responders (n = 22) / Prov % responders (n = 22): positive if SI≧2.0, peptide 1 and 10 μg/ml; for Prov # responders (n = 22) / Prov % responders (n = 22): Providence cohort; for number of Mtb-immune responders (proliferative response): all 40 Mtb-immune subjects, SI≧2.0.

With VAVAGAAILVAGLSGCSSN [19-1], the “Phil # responders (n = 38)” value turned out to be 5, the “Phil % responders (n = 38)” value was determined as 13%, the “Prov # responders (n = 22)” value came to 8 and the “Prov % responders (n = 22)” value is listed as 20%.
As to “KFLEGFVRTSNIKFQD (listed as Mycobacterium tuberculosis) [32-9, aa 227-242 of 32 kDa Mtb protein (Antigen 85A)]”, the “Phil # responders (n = 38)” value stood at 3, the “Phil % responders (n = 38)” value is 8%, the “Prov # responders (n = 22)” value is 3 and the “Prov % responders (n = 22)” value is 8%. In addition, the “number of Mtb-immune responders (proliferative response)” value (“number of Mtb-immune responders” for short) is given as “six”.
With “LKLGLVEFGGVAKLNAEVMS (listed as Mycobacterium tuberculosis) [14-3, aa 30-49 of 14 kDa Mtb protein]”, the “Phil # responders (n = 38)” value was determined as 3, the “Phil % responders (n = 38)” value is 8%, the “Prov # responders (n = 22)” value was 4 and the “Prov % responders (n = 22)” value was 10%. Further, the “number of Mtb-immune responders” value is reported as “six”.
In the case of phytohemagglutinin [reference compound], where the note is “PHA 1 μg/ml, the 41 subjects who were tested”, the “response to mitogen” value was “robust response”.
For the substance “GILTVSVAVSEGKPTEK (listed as Mycobacterium tuberculosis) [16-6, aa 119-135 of 16 kDa Mtb protein]”, the “Phil # responders (n = 38)” value amounted to 2, the “Phil % responders (n = 38)” value is listed as 5%, the “Prov # responders (n = 22)” value worked out at 1 and the “Prov % responders (n = 22)” value was 3%.
For SHYKITGTATGVD [19-5], the “Phil # responders (n = 38)” value worked out at 1, the “Phil % responders (n = 38)” value is 3%, the “Prov # responders (n = 22)” value is 3 and the “Prov % responders (n = 22)” value is reported as 8%.
For “SVVMPVGGQSSFYSDW (listed as Mycobacterium tuberculosis) [32-3, aa 67-82 of 32 kDa Mtb protein (Antigen 85A)]”, the “Phil # responders (n = 38)” value was 5, the “Phil % responders (n = 38)” value is 13%, the “Prov # responders (n = 22)” value turned out to be 2 and the “Prov % responders (n = 22)” value came to 5%. Also, the “number of Mtb-immune responders” value is listed as “six”.
For the substance “QAVMLGTGTPNRA (listed as Mycobacterium tuberculosis) [14-4, aa 56-68 of 14 kDa Mtb protein]”, the “Phil # responders (n = 38)” value is reported as 3, the “Phil % responders (n = 38)” value stood at 8%, the “Prov # responders (n = 22)” value turned out to be 1 and the “Prov % responders (n = 22)” value was 3%.
In the same order, the values of “LTIKAERTEQK (listed as Mycobacterium tuberculosis) [16-4, aa 74-84 of 16 kDa Mtb protein]” are 0, 0%, 5 and 13%.
Turning to “GSFGSAPSNGWLKLGLVEFG (listed as Mycobacterium tuberculosis) [14-2, aa 19-38 of 14 kDa Mtb protein]”, the “Phil # responders (n = 38)” value turned out to be 6, the “Phil % responders (n = 38)” value is recorded as 15%, the “Prov # responders (n = 22)” value is 3 and the “Prov % responders (n = 22)” value was 8%. Also, the “number of Mtb-immune responders” value was “six”.
In the same order, the values of “VGLSMAASSALTLAIYHPQQ (listed as Mycobacterium tuberculosis) [32-6, aa 123-142 of 32 kDa Mtb protein (Antigen 85A)]” are 4, 10%, 6, 15% and “six”.
Regarding “TFLTSELPGWLQ (listed as Mycobacterium tuberculosis) [32-4, aa 99-110 of 32 kDa Mtb protein (Antigen 85A)]”, the “Phil # responders (n = 38)” value was 2, the “Phil % responders (n = 38)” value turned out to be 5%, the “Prov # responders (n = 22)” value turned out to be 2 and the “Prov % responders (n = 22)” value stood at 5%.
On to “ALYLLDGLRAQDD (listed as Mycobacterium tuberculosis) [32-2, aa 35-47 of 32 kDa Mtb protein (Antigen 85A)]”, for which the “Phil # responders (n = 38)” value was determined as 3, the “Phil % responders (n = 38)” value was found to be 8%, the “Prov # responders (n = 22)” value was determined as 2 and the “Prov % responders (n = 22)” value was 5%.
In the case of “LPVEYLQVPSPSMGR (listed as Mycobacterium tuberculosis) [32-1, aa 6-20 of 32 kDa Mtb protein (Antigen 85A)]”, the “Phil # responders (n = 38)” value was 3, the “Phil % responders (n = 38)” value was 8%, the “Prov # responders (n = 22)” value turned out to be 2 and the “Prov % responders (n = 22)” value was determined as 5%.
In the same order, the values of “CEVWSNVSETISGPRLYGEM (listed as Mycobacterium tuberculosis) [14-5, aa 74-93 of 14 kDa Mtb protein]” are 2, 5%, 2 and 5%.
On to “RHVKPTGSAVVGLSMAASSA (listed as Mycobacterium tuberculosis) [32-5, aa 113-132 of 32 kDa Mtb protein (Antigen 85A)]”, for which the “Phil # responders (n = 38)” value was found to be 2, the “Phil % responders (n = 38)” value is 5%, the “Prov # responders (n = 22)” value was 8 and the “Prov % responders (n = 22)” value is 20%. Further, the “number of Mtb-immune responders” value is on record as “six”.
As to “GVFDFPDSGTHSW (listed as Mycobacterium tuberculosis) [32-10, aa 252-264 of 32 kDa Mtb protein (Antigen 85A)]”, the “Phil # responders (n = 38)” value was 3, the “Phil % responders (n = 38)” value was determined as 8%, the “Prov # responders (n = 22)” value is on record as 2 and the “Prov % responders (n = 22)” value was 5%.
In the same order, the values of “VSETISGPRLYGEMTMQGTR (listed as Mycobacterium tuberculosis) [14-6, aa 80-99 of 14 kDa Mtb protein]” are 1, 3%, 1 and 3%.
In the same order, the values of “FSELFAAFPSFAGLRPTFDT (listed as Mycobacterium tuberculosis) [16-2, aa 17-36 of 16 kDa Mtb protein]” are 4, 10%, 1 and 3%.
Turning to “TT: tetanus toxoid, control antigen (Connaught) [reference compound]”, the SI range was 2-182. The “Mtb-immune subjects showing an in vitro proliferative response” value (control antigen 5 μg/ml, 40 Mtb-immune subjects) is recorded as “All but six”.
For the substance QNVTGSVVCTTAAGNVN [19-2], the “Phil # responders (n = 38)” value came out at 3, the “Phil % responders (n = 38)” value is listed as 8%, the “Prov # responders (n = 22)” value was 4 and the “Prov % responders (n = 22)” value turned out to be 10%. The “number of Mtb-immune responders” value was “six”.
With “RSLFPEFSELFAAFPSFAGL (listed as Mycobacterium tuberculosis) [16-1, aa 11-30 of 16 kDa Mtb protein]”, the “Phil # responders (n = 38)” value is 4, the “Phil % responders (n = 38)” value stood at 10%, the “Prov # responders (n = 22)” value is reported as 2 and the “Prov % responders (n = 22)” value stood at 5%. The “number of Mtb-immune responders” value is reported as “six”.
Regarding “EYWGAQLNAMKP (listed as Mycobacterium tuberculosis) [32-11, aa 265-276 of 32 kDa Mtb protein (Antigen 85A)]”, the “Phil # responders (n = 38)” value is 3, the “Phil % responders (n = 38)” value stood at 8%, the “Prov # responders (n = 22)” value is given as 1 and the “Prov % responders (n = 22)” value was determined as 3%.
Consider “MLGNAPSVVPNTTLGMHC (listed as Mycobacterium tuberculosis) [14-1, aa 1-18 of 14 kDa Mtb protein]”, for which the “Phil # responders (n = 38)” value was found to be 2, the “Phil % responders (n = 38)” value came to 5%, the “Prov # responders (n = 22)” value came out at 2 and the “Prov % responders (n = 22)” value is 5%.
Take IAIGGAATGIAAVLTDGNPP [19-3]: the “Phil # responders (n = 38)” value is on record as 4, the “Phil % responders (n = 38)” value is given as 10%, the “Prov # responders (n = 22)” value turned out to be 3 and the “Prov % responders (n = 22)” value is given as 8%. The “number of Mtb-immune responders” value is on record as “six”.
In the same order, the values of “LAIYHPQQFVYAGAMSGLLD (listed as Mycobacterium tuberculosis) [32-7, aa 135-154 of 32 kDa Mtb protein (Antigen 85A)]” are 5, 13%, 6, 15% and “six”.
As to “AELPGVDPDKDVD (listed as Mycobacterium tuberculosis) [16-3, aa 54-66 of 16 kDa Mtb protein]”, the “Phil # responders (n = 38)” value is given as 0, the “Phil % responders (n = 38)” value is reported as 0%, the “Prov # responders (n = 22)” value turned out to be 1 and the “Prov % responders (n = 22)” value is 3%. The “number of Mtb-immune responders” value is “one”.
Consider “VTLGYTSGTGQ (listed as Mycobacterium tuberculosis) [19-4, aa 107-117 of 19 kDa Mtb protein]”, for which the “Phil # responders (n = 38)” value came out at 2, the “Phil % responders (n = 38)” value is 5%, the “Prov # responders (n = 22)” value worked out at 3 and the “Prov % responders (n = 22)” value amounted to 8%.
